Measured values taken from US10329282B2, “Rho-associated protein kinase inhibitor, pharmaceutical composition comprising the same, as well as preparation method and use thereof” (Beijing Tide Pharmaceutical Co., Ltd., priority 2017, dated 2019).
pIC50: −log10 of the molar value.

Biological target: ROCK2 (Homo sapiens (Human), UniProt O75116)
Assay: ROCK2 kinase IC50 assay (CISBIO HTRF KinEASE-STK S2 kit)
Format: biochemical
Settings: ROCK2 from Carna Biosciences, 2 h incubation at room temperature
In short: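 ROCK2 reaction with STK-S2 substrate and ATP (5× working solutions 1.5 μM each), 2 h at room temperature; 9-point compound dilutions from 10000 nM. HTRF 665/615 emission ratio gave % inhibition versus kinase and no-kinase controls; IC50 by curve fit.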

Sequence of ROCK2 (O75116 1-553): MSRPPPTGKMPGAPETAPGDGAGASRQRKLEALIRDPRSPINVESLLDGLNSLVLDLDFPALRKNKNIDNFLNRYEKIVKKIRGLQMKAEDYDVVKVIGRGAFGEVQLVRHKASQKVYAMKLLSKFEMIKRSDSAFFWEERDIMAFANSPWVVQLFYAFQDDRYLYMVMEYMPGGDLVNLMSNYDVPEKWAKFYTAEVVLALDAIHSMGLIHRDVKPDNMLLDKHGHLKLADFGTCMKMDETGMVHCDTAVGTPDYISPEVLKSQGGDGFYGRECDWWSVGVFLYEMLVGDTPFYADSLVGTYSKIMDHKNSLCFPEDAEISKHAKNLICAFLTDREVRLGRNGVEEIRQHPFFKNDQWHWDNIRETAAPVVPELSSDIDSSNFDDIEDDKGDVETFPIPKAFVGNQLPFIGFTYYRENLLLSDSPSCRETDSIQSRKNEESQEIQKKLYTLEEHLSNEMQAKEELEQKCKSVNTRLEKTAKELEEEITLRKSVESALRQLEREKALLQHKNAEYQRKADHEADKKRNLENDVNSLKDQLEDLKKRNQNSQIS

| pIC50 | SMILES |
| --- | --- |
| 6.36 | CN1CCN(C(=O)c2cc3ccc(-c4nccc(Nc5ccc(-c6cn[nH]c6)cc5)n4)cc3[nH]2)CC1 [TDI01343, (6-(4-((4-(1H-pyrazol-4-yl)phenyl)amino)pyrimidin-2-yl)-1H-indol-2-yl)(4-methylpiperazin-1-yl)methanone] |
| 6.58 | O=C(NC1CCOC1)c1cc2ccc(-c3nc(Nc4ccc(-c5cn[nH]c5)cc4)c4sccc4n3)cc2[nH]1 (stereo not shown) [TDI01423, 6-(4-((4-(1H-pyrazol-4-yl)phenyl)amino)thieno[3,2-d]pyrimidin-2-yl)-N-(tetrahydrofuran-3-yl)-1H-indole-2-carboxamide] |
| 6.62 | CC(C)NC(=O)C1Cc2ccc(-c3nccc(Nc4ccc5[nH]ncc5c4)n3)cc2N1 (stereo not shown) [TDI01292, 6-(4-((1H-indazol-5-yl)amino)pyrimidin-2-yl)-N-isopropylindoline-2-carboxamide] |
| 6.47 | CCN(CC)C(=O)c1cc2ccc(-c3ncc(OC)c(Nc4ccc(-c5cn[nH]c5)cc4)n3)cc2[nH]1 [TDI01823, 6-(4-((4-(1H-pyrazol-4-yl)phenyl)amino)-5-methoxypyrimidin-2-yl)-N,N-diethyl-1H-indole-2-carboxamide] |
| 6.92 | O=C(c1cc2ccc(-c3nccc(Nc4ccc(-c5cn[nH]c5)cc4)n3)cc2[nH]1)N1CCC2(CCNCC2)CC1 [TDI01425, (6-(4-((4-(1H-pyrazol-4-yl)phenyl)amino)pyrimidin-2-yl)-1H-indol-2-yl)(3,9-diazaspiro[5.5]undecan-3-yl)methanone] |
| 7.00 | O=C(NC1CC1)c1cc2ccc(-c3nccc(Nc4ccc5[nH]ncc5c4)n3)cc2s1 [TDI01111, 6-(4-((1H-indazol-5-yl)amino)pyrimidin-2-yl)-N-cyclopropylbenzo[b]thiophene-2-carboxamide] |
| 6.57 | CN(C(=O)c1cc2ccc(-c3nccc(Nc4ccc(-c5cn[nH]c5)cc4)n3)cc2[nH]1)C1CC(O)C1 (stereo not shown) [TDI01418] |
| 6.33 | CC(C)NC(=O)c1cc2ccc(-c3nc(Nc4ccc5[nH]ncc5c4)cc(OCCN(C)C)n3)cc2s1 [TDI01121, 6-(4-((1H-indazol-5-yl)amino)-6-(2-(dimethylamino)ethoxy)pyrimidin-2-yl)-N-isopropylbenzo[b]thiophene-2-carboxamide] |
| 6.95 | CN1CCC(N2CCC(NC(=O)c3cc4ccc(-c5nccc(Nc6ccc7[nH]ncc7c6)n5)cc4[nH]3)CC2)CC1 [TDI01317, 6-(4-((1H-indazol-5-yl)amino)pyrimidin-2-yl)-N-(1′-methyl-[1,4′-bipiperidin]-4-yl)-1H-indole-2-carboxamide] |
| 7.48 | COC(=O)c1ccc(NC(=O)c2cc3ccc(-c4nccc(Nc5ccc6[nH]ncc6c5)n4)cc3[nH]2)cc1 [TDI01130, methyl 4-(6-(4-((1H-indazol-5-yl)amino)pyrimidin-2-yl)-1H-indole-2-carboxamido)benzoate] |
| 6.96 | CC(C)NC(=O)c1cc2ccc(-c3nc(Nc4ccc(-c5cn[nH]c5)cc4)c4sccc4n3)cc2[nH]1 [TDI01370, 6-(4-((4-(1H-pyrazol-4-yl)phenyl)amino)thieno[3,2-d]pyrimidin-2-yl)-N-isopropyl-1H-indole-2-carboxamide] |
| 7.35 | O=C(NC1CC1)c1cc2ccc(-c3nccc(Nc4ccc5[nH]ncc5c4)n3)cc2[nH]1 [TDI01151, 6-(4-((1H-indazol-5-yl)amino)pyrimidin-2-yl)-N-cyclopropyl-1H-indole-2-carboxamide] |
| 6.59 | CN(C)C(=O)N1Cc2ccc(-c3nccc(Nc4ccc(-c5cn[nH]c5)cc4)n3)cc2C1 [TDI01366, 5-(4-((4-(1H-pyrazol-4-yl)phenyl)amino)pyrimidin-2-yl)-N,N-dimethylisoindoline-2-carboxamide] |
| 6.98 | O=C(Nc1ccncc1)c1cc2ccc(-c3nccc(Nc4ccc(-c5cn[nH]c5)cc4)n3)cc2[nH]1 [TDI01363, 6-(4-((4-(1H-pyrazol-4-yl)phenyl)amino)pyrimidin-2-yl)-N-(pyridin-4-yl)-1H-indole-2-carboxamide] |
| 7.14 | CN(C)c1cnccc1NC(=O)c1cc2ccc(-c3nccc(Nc4ccc5[nH]ncc5c4)n3)cc2[nH]1 [TDI01289, 6-(4-((1H-indazol-5-yl)amino)pyrimidin-2-yl)-N-(3-(dimethylamino)pyridin-4-yl)-1H-indole-2-carboxamide] |
| 6.44 | CN(CC(F)(F)F)C(=O)c1cc2ccc(-c3ncc(F)c(Nc4ccc(-c5cn[nH]c5)cc4)n3)cc2[nH]1 [TDI01426] |
| 7.27 | O=C(Nc1cnccn1)c1cc2ccc(-c3nccc(Nc4ccc5[nH]ncc5c4)n3)cc2[nH]1 [TDI01160, 6-(4-((1H-indazol-5-yl)amino)pyrimidin-2-yl)-N-(pyrazin-2-yl)-1H-indole-2-carboxamide] |
| 7.89 | O=C(c1cc2ccc(-c3nccc(Nc4ccc(-c5cn[nH]c5)cc4)n3)cc2[nH]1)N1CC(C(F)(F)F)C1 [TDI01433] |
| 6.80 | CN1CCC(NC(=O)c2cc3ccc(-c4nccc(Nc5ccc6[nH]ncc6c5)n4)cc3s2)CC1 [TDI01114, 6-(4-((1H-indazol-5-yl)amino)pyrimidin-2-yl)-N-(1-methylpiperidin-4-yl)benzo[b]thiophene-2-carboxamide] |

| pIC50 | SMILES |
| --- | --- |
| 6.66 | CC(C)NC(=O)c1cc2ccc(-c3nc(Nc4ccc5[nH]ncc5c4)c4ccn(CCN(C)C)c4n3)cc2s1 [TDI01122, 6-(4-((1H-indazol-5-yl)amino)-7-(2-(dimethylamino)ethyl)-7H-pyrrolo[2,3-d]pyrimidin-2-yl)-N-isopropylbenzo[b]thiophene-2-carboxamide] |
| 6.73 | O=C(NC1CCCCC1)c1cc2ccc(-c3nccc(Nc4ccc5[nH]ncc5c4)n3)cc2s1 [TDI01112, 6-(4-((1H-indazol-5-yl)amino)pyrimidin-2-yl)-N-cyclohexylbenzo[b]thiophene-2-carboxamide] |
| 7.00 | CN1CCN(c2ccc(NC(=O)c3cc4ccc(-c5nccc(Nc6ccc7[nH]ncc7c6)n5)cc4[nH]3)cc2)CC1 [TDI01131, 6-(4-((1H-indazol-5-yl)amino)pyrimidin-2-yl)-N-(4-(4-methylpiperazin-1-yl)phenyl)-1H-indole-2-carboxamide] |
| 7.55 | CC(CO)NC(=O)c1cc2ccc(-c3nccc(Nc4ccc5[nH]ncc5c4)n3)cc2[nH]1 (stereo not shown) [TDI01176, 6-(4-((1H-indazol-5-yl)amino)pyrimidin-2-yl)-N-(1-hydroxypropan-2-yl)-1H-indole-2-carboxamide] |
| 6.60 | O=C(Nc1ccncc1Cl)c1cc2ccc(-c3nccc(Nc4ccc(-c5cn[nH]c5)cc4)n3)cc2[nH]1 [TDI01354, 6-(4-((4-(1H-pyrazol-4-yl)phenyl)amino)pyrimidin-2-yl)-N-(3-chloropyridin-4-yl)-1H-indole-2-carboxamide] |
| 7.01 | O=C(Nc1ccncc1I)c1cc2ccc(-c3nccc(Nc4ccc(-c5cn[nH]c5)cc4)n3)cc2[nH]1 [TDI01829C] |
| 7.15 | CC(C)NC(=O)c1cc2ccc(-c3nccc(Nc4ccc5[nH]ncc5c4)n3)cc2s1 [TDI01104, 6-(4-((1H-indazol-5-yl)amino)pyrimidin-2-yl)-N-isopropylbenzo[b]thiophene-2-carboxamide] |
| 6.83 | CN1CCC(NC(=O)c2cc3ccc(-c4nccc(Nc5ccc(-c6cn[nH]c6)cc5)n4)cc3[nH]2)C1 (stereo not shown) [TDI01339, 6-(4-((4-(1H-pyrazol-4-yl)phenyl)amino)pyrimidin-2-yl)-N-(1-methylpyrrolidin-3-yl)-1H-indole-2-carboxamide] |
| 6.68 | CNC(=O)c1cc2ccc(-c3nccc(Nc4ccc(-c5cn[nH]c5)cc4)n3)cc2[nH]1 [TDI01296, 6-(4-((4-(1H-pyrazol-4-yl)phenyl)amino)pyrimidin-2-yl)-N-methyl-1H-indole-2-carboxamide] |
| 6.32 | O=C(c1cc2ccc(-c3nccc(Nc4ccc(-c5cn[nH]c5)cc4)n3)cc2[nH]1)N1CCC1 [TDI01330, (6-(4-((4-(1H-pyrazol-4-yl)phenyl)amino)pyrimidin-2-yl)-1H-indol-2-yl)(azetidin-1-yl)methanone] |
| 6.83 | C[C@H](CN)NC(=O)c1cc2ccc(-c3nccc(Nc4ccc(-c5cn[nH]c5)cc4)n3)cc2[nH]1 [TDI01855, (R)-6-(4-((4-(1H-pyrazol-4-yl)phenyl)amino)pyrimidin-2-yl)-N-(1-aminopropan-2-yl)-1H-indole-2-carboxamide] |
| 6.78 | CC(C)NC(=O)C1COc2ccc(-c3nccc(Nc4ccc5[nH]ncc5c4)n3)cc2O1 (stereo not shown) [TDI01103, 7-(4-((1H-indazol-5-yl)amino)pyrimidin-2-yl)-N-isopropyl-2,3-dihydrobenzo[b][1,4]dioxine-2-carboxamide] |
| 6.87 | O=C(Nc1nncs1)c1cc2ccc(-c3nccc(Nc4ccc5[nH]ncc5c4)n3)cc2[nH]1 [TDI01247, 6-(4-((1H-indazol-5-yl)amino)pyrimidin-2-yl)-N-(1,3,4-thiadiazol-2-yl)-1H-indole-2-carboxamide] |
| 7.60 | O=C(Nc1cnoc1)c1cc2ccc(-c3nccc(Nc4ccc5[nH]ncc5c4)n3)cc2[nH]1 [TDI01156, 6-(4-((1H-indazol-5-yl)amino)pyrimidin-2-yl)-N-(isoxazol-4-yl)-1H-indole-2-carboxamide] |
| 6.68 | O=C(Nc1ccncn1)c1cc2ccc(-c3nccc(Nc4ccc5[nH]ncc5c4)n3)cc2[nH]1 [TDI01161, 6-(4-((1H-indazol-5-yl)amino)pyrimidin-2-yl)-N-(pyrimidin-4-yl)-1H-indole-2-carboxamide] |
| 6.59 | CCN(CC)C(=O)c1cc2ccc(-c3nccc(Nc4ccc(-c5cn[nH]c5)cc4)n3)cc2[nH]1 [TDI01332, 6-(4-((4-(1H-pyrazol-4-yl)phenyl)amino)pyrimidin-2-yl)-N,N-diethyl-1H-indole-2-carboxamide] |
| 6.52 | CN(CCC#N)C(=O)c1cc2ccc(-c3nccc(Nc4ccc(-c5cn[nH]c5)cc4)n3)cc2[nH]1 [TDI01442] |
| 7.38 | O=C(NC1CCOC1)c1cc2ccc(-c3nccc(Nc4ccc5[nH]ncc5c4)n3)cc2s1 (stereo not shown) [TDI01113, 6-(4-((1H-indazol-5-yl)amino)pyrimidin-2-yl)-N-(tetrahydrofuran-3-yl)benzo[b]thiophene-2-carboxamide] |
